Here are results for 16 compounds from patent publication US6664231B1, “Anti-fungal peptides” (priority 1993, dated 2003).

Square brackets hold non-standard residues; d marks the D form. Peptide text beside a SMILES is read from it. 1Nal = N[C@@H](Cc1cccc2ccccc12)C(=O)O

This experiment deals with C. albicans (CA-1, Strain SLU-1). The experiment can be described thus: Radial diffusion assay. As to conditions: for C. albicans pmol/30 mm^2 zone: pmoles of peptide added to well to achieve a 30 mm^2 zone, PROBIT analysis, crude or purified (P′) peptide; for Plate Assay (nmol), pure peptide activity: HPLC-purified peptide; for Plate Assay (nmol), pure peptide activity / Plate Assay (nmol), crude peptide activity: nanomoles required to achieve a net 30 mm^2 zone (log titration curve). It is filed as cell-based, Candida albicans. An outline of the steps: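 Yeast at 1×10^6 CFU/mL in agarose underlayer (3% Sabouraud, 10 mM sodium phosphate pH 7.4); 2-fold peptide dilutions in D-PBS from ~1 mg/mL loaded into wells, 3 h at 37° C, then nutrient overlayer overnight. Value: pmol/well giving 30 mm^2 net clear zone, by PROBIT regression.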

For “XMP.137: C-148-161-C (SEQ ID NO:56) (CKSKVGWLIQLFHKKC)”, the “C. albicans pmol/30 mm^2 zone” value is recorded as above 2286 pmol/30 mm^2 zone.
As for H-WLIQLF-NH2 [compound 316], the “Plate Assay (nmol), pure peptide activity” value is “inactive” and the “Plate Assay (nmol), crude peptide activity” value stood at 11.1 nmol.
For the compound H-KVKWLIQLFH-NH2 [XMP.291], the “C. albicans pmol/30 mm^2 zone” value is given as >5,039 pmol/30 mm^2 zone.
For H-VKWLIQLFHKK-NH2 [Peptide 289], the “Plate Assay (nmol), pure peptide activity” value worked out at 0.68 nmol and the “Plate Assay (nmol), crude peptide activity” value amounted to 1.542 nmol.
Consider “XMP.408: L - K - K - K - W - A - I - Q (cyclized head to tail) (SEQ ID NO:239) (LKKKWAIQ; head-to-tail cyclized)”, for which the “C. albicans pmol/30 mm^2 zone” value is recorded as “b (No detectable activity up to 5 μg/well)”.
On to H-KSKVGWLAQLFHKK-NH2 [XMP.38], for which the “C. albicans pmol/30 mm^2 zone” value was determined as 391 pmol/30 mm^2 zone.
Still for that read-out and setting: as for H-WLIQLKK-NH2 [XMP.322], the figure is 3,488 pmol/30 mm^2 zone; as for H-IQLFHKK-NH2 [XMP.311], “b (No detectable activity up to 5 μg/well)”.
Still for that read-out and setting: as for H-KSKVGWLIALFHKK-NH2 [XMP.39], the figure is 1792 pmol/30 mm^2 zone.
As to `CC[C@H](C)[C@H](NC(=O)[C@H](CC(C)C)NC(=O)[C@@H](N)Cc1c[nH]c2ccccc12)C(=O)N[C@@H](CCC(N)=O)C(=O)N[C@@H](CC(C)C)C(=O)N[C@@H](Cc1ccccc1)C(=O)N[C@@H](Cc1c[nH]cn1)C(=O)N[C@@H](CCCCN)C(=O)N[C@@H](CCCCN)C(N)=O` [XMP.298], the “C. albicans pmol/30 mm^2 zone” value is given as 2,628 pmol/30 mm^2 zone. Besides, for the setting “listed as XMP.298P′”, the “C. albicans pmol/30 mm^2 zone” value is 1,106 pmol/30 mm^2 zone.
`CC[C@H](C)[C@H](NC(=O)[C@H](CC(C)C)NC(=O)[C@H](Cc1c[nH]c2ccccc12)NC(=O)CNC(=O)[C@@H](NC(=O)[C@H](CCCCN)NC(=O)[C@H](CO)NC(=O)[C@@H](N)CCCCN)C(C)C)C(=O)N[C@@H](CCC(N)=O)C(=O)N[C@@H](CC(C)C)C(=O)N[C@@H](Cc1c[nH]c2ccccc12)C(=O)N[C@@H](Cc1c[nH]cn1)C(=O)N[C@@H](CCCCN)C(=O)N[C@@H](Cc1cccc2ccccc12)C(N)=O` [XMP.230] (H-KSKVGWLIQLWHK[1Nal]-NH2): the “C. albicans pmol/30 mm^2 zone” value is listed as >2,386 pmol/30 mm^2 zone.
As for H-SKVKWLIQLFHKK-NH2 [Peptide 284], the “Plate Assay (nmol), pure peptide activity” value was 0.373 nmol and the “Plate Assay (nmol), crude peptide activity” value was determined as 1.460 nmol.
Take `CC[C@H](C)[C@H](NC(=O)[C@H](CC(C)C)NC(=O)[C@H](Cc1cccc2ccccc12)NC(=O)CNC(=O)[C@@H](NC(=O)[C@H](CCCCN)NC(=O)[C@H](CO)NC(=O)[C@@H](N)CCCCN)C(C)C)C(=O)N[C@@H](CCC(N)=O)C(=O)N[C@@H](CC(C)C)C(=O)N[C@@H](Cc1ccccc1)C(=O)N[C@@H](Cc1c[nH]cn1)C(=O)N[C@@H](CCCCN)C(=O)N[C@@H](CCCCN)C(N)=O` [XMP.83] (H-KSKVG[1Nal]LIQLFHKK-NH2): the “C. albicans pmol/30 mm^2 zone” value amounted to 1804 pmol/30 mm^2 zone.
Same read-out and setting: with H-KSKVGWLIYLFHKK-NH2 [XMP.125] the figure was above 3150 pmol/30 mm^2 zone; with H-KSKVGWLIQLFFKK-NH2 [XMP.94], above 923 pmol/30 mm^2 zone.
For the compound `CC[C@H](C)[C@H](NC(=O)[C@H](CC(C)C)NC(=O)[C@H](Cc1c[nH]c2ccccc12)NC(=O)CNC(=O)[C@@H](NC(=O)[C@H](CCCCN)NC(=O)[C@H](CO)NC(=O)[C@@H](N)CCCCN)C(C)C)C(=O)N[C@@H](CCC(N)=O)C(=O)N[C@@H](CC(C)C)C(=O)N[C@@H](Cc1cccc2ccccc12)C(=O)N[C@@H](Cc1c[nH]cn1)C(=O)N[C@@H](CCCCN)C(=O)N[C@@H](CCCCN)C(N)=O` [XMP.109] (H-KSKVGWLIQL[1Nal]HKK-NH2), the “C. albicans pmol/30 mm^2 zone” value is recorded as above 2839 pmol/30 mm^2 zone.
